Consider one molecule from patent publication US20240385187A1, “BI-[…] REPORTER PARTICLE AND METHODS FOR MAKING AND USING THE SAME” (The Trustees of Indiana University, priority 2021, published 2024).

The experiment deals with phagosomes of RAW264.7 macrophage cells. Nature of the experiment: Effect of V-ATPase inhibition on phagosome acidification and proteolysis, monitored in single phagosomes with Janus pH-proteolysis reporter particles. Format: cell-based. The conditions noted are these: for duration of proteolysis: onset of proteolysis to start of Rhodamine 110 intensity decrease, without ConA 24±10. As to the method:
Dual color imaging started 5 minutes after Janus particle probes were added to cells and lasted for approximately 45 minutes. After particle internalization, the fluorescence intensity of the pH reporter increased first, followed by a similar intensity increase of the proteolysis reporter, indicating the progress of maturation (FIG. 6A). It was noted that some […] slowly diffused into the cell cytoplasm by the end of imaging, causing a slightly elevated fluorescence in the cell. This is expected because small dye molecules can passively diffuse across the phagosome membrane.
ConcanamycinA (ConA), a V-ATPase inhibitor, was added to disrupt acidification of phagosomes and its effect on proteolytic activities was monitored. […] The fluorescence decrease was caused by the continuous diffusion of Rhodamine 110, already in the phagosome lumen prior to the ConA addition, into the cell cytoplasm. After ConA addition, Rhodamine 110 lost by diffusion was not replaced by the generation of more.
To quantify the effect of ConA on proteolysis, duration of proteolysis was measured. In cells without ConA treatment, this was measured as the time from the onset of proteolysis (tproteolysis) to the start of the intensity plateau. In cells treated with ConA, this was measured as the time from the onset of proteolysis (tproteolysis) to the time when the Rhodamine 110 intensity started to decrease (FIG. 7C). Phagosome proteolysis in cells without ConA treatment lasted for 24±10 minutes on average (FIG. 7C). However, the duration of proteolysis was shorted to 16±5 minutes in the presence of 100 nM ConA and 10±4 minutes with 500 nM ConA.
In all phagosomes examined (N=21), proteolysis stopped within a short time after termination of acidification. […] This is consistent with the observation noted above that proteolysis started when the phagosome acidified to a threshold pH of 5.8±0.7. […] With the Janus reporter particle, it was identified that an acidic lumen is a prerequisite for the start of proteolytic activities in phagosomes, and their temporal relationship inside single phagosomes was quantitatively determined; data impossible to obtain by prior methods. Thus the bifunctional Janus pH-proteolysis reporter particle was able to detect both a disruption in phagosome acidification and a disruption in proteolytic activity inside a single phagosome caused by the presence of the V-ATPase inhibitor ConA.
Carboxylate polystyrene particles (500 nm) were purchased from Polysciences (Warrington, PA, USA). CF™ 640R NHS ester (succinimidyl ester), fluorescent peptide Rhodamine 110, bis-(N-CBZ-L-phenylalanyl-L-arginine amide) dihydrochloride (Z-FR-R110) were purchased from Biotium (Fremont, CA, USA). Amine-functionalized polystyrene particle (3 μm), carboxylated fluorophores (500 nm, ex/em 580/605), Alexa Fluor 568 NHS ester (succinimidyl ester), Alexa Fluor 647 NHS ester (succinimidyl ester), pHrodo™ iFL Red STP Ester, EZ-Link™ NHS-Biotin, sulfo-NHS (N-succinimidyl ester), streptavidin, and lipopolysaccharides from Escherichia coli (LPS) were purchased from ThermoFisher Scientific (Waltham, MA, USA). Bovine serum albumin (BSA), trypsin, nigericin sodium salt, and immunoglobulin G (IgG) from rabbit plasma were purchased from MilliporeSigma (St. Louis, MO, USA). 1-(3-Dimethylaminopropyl)-3-ethylcarbodiimide hydrochloride (EDC) was purchased from Alfa Aesar (Haverhill, MA, USA). Biotin pentylamine was purchased from Soltec BioScience (Beveraly MA). Concanamycin A was purchased from Santa Cruz Biotechnology (Dallas, TX, USA). Raw 264.7 macrophage cells were purchased from ATCC (Manassas, VA, USA). Ringer's solution (pH=7.2, 10 mM HEPES, 10 mM glucose, 155 mM NaCl, 2 mM NaH2PO4, 5 mM KCl, 2 mM CaCl2, 1 mM MgCl2) was used for live-cell imaging. Potassium-rich solution (135 mM KCl, 2 mM […], 1.2 mM CaCl2, 0.8 mM MgSO4) was used for intracellular pH calibration. […]

Turning to `C/C=C/[C@H]1O[C@@](O)([C@@H](C)[C@H](O)[C@H](C)[C@H]2OC(=O)/C(OC)=C/C(C)=C/[C@@H](C)[C@@H](O)[C@@H](CC)[C@@H](O)[C@H](C)C/C(C)=C/C=C/[C@@H]2OC)C[C@@H](O[C@H]2C[C@@H](O)[C@H](OC(N)=O)[C@@H](C)O2)[C@@H]1C` [ConA, Concanamycin A], the “phagosome acidification and proteolytic activity” value (100 nM ConA added to cells before the onset of acidification) is “failed to acidify or exhibit proteolytic activities”. Moreover, the duration of proteolysis was found to be 16 ± 5 min (100 nM ConA, N=11) and 10 ± 4 min (500 nM ConA, N=10). Also, the “phagosome proteolysis (Rhodamine 110 fluorescence)” value (ConA added after acidification had started, within minutes after acidification stopped) is recorded as “phagosome proteolysis also stopped”. Moreover, the phagosome acidification result (ConA added to cells after acidification had started, lumen pH started to increase) is reported as “stopped acidifying”. Further, the “average pH of single phagosomes at the termination point of proteolysis” value (ConA-treated cells, N=21 phagosomes) came to 5.1±0.4.
